From patent US8580812B2, “Heteroaryl amide analogues as P2X7 antagonists” (H. Lundbeck A/S, priority 2007, dated 2013)

What follows are compounds tested against T1, P2X7 (Homo sapiens, UniProt Q99572) (assay: High Throughput P2X7 Calcium Mobilization Assay (Example 4A), antagonist activity). Settings: SH-SY5Y cells, 50% decrease in fluorescence response of cells exposed to 80 μM BzATP.
T1 construct: host or cells: SH-SY5Y
T1 sequence (Q99572 1-595): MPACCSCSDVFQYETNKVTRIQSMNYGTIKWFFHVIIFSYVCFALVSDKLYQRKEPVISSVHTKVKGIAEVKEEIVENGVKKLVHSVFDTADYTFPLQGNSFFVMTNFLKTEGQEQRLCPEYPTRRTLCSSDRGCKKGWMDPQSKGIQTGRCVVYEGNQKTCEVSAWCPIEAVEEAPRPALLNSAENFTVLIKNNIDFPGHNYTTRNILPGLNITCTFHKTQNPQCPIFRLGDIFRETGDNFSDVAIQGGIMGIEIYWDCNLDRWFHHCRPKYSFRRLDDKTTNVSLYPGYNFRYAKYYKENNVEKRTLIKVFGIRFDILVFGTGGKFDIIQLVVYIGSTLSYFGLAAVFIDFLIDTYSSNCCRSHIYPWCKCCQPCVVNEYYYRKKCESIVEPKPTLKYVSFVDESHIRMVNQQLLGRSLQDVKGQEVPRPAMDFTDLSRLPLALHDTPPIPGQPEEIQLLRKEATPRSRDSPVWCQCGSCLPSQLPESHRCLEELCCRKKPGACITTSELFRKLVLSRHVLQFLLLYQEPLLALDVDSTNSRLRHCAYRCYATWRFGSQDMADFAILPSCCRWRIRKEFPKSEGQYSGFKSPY
Assay type: cell-based
Procedure, shortened: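 SH-SY5Y cells loaded with Fluo-4 AM were preincubated 1 h at room temperature with compound (typically 1–2500 nM) in sucrose/HEPES buffer, pH 7.4, then challenged with 80 μM BzATP (final, about EC50). Peak fluorescence over 2 min gave percent inhibition relative to agonist-only wells, and IC50 came from a Hill-equation fit.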

IC50, ≤ 2 µM:
CN(Cc1cccnc1)C(=O)c1cc2c(C(=O)NCC34CC5CC(CC(C5)C3)C4)cccn2n1 [Compound 21, 4-N-(adamantan-1-ylmethyl)-2-N-methyl-2-N-(pyridin-3-ylmethyl)pyrazolo[1,5-a]pyridine-2,4-dicarboxamide]
Cc1nc2c(c(=O)[nH]1)CN(C(=O)c1cc3c(C(=O)NCC45CC6CC(CC(C6)C4)C5)cccn3n1)CC2 [Compound 30, N-(adamantan-1-ylmethyl)-2-[(2-methyl-4-oxo-3,5,7,8-tetrahydropyrido[4,3-d]pyrimidin-6(4H)-yl)carbonyl]pyrazolo [1,5-a]pyridine-4-carboxamide]
CC(C)CC(CNC(=O)c1cccn2nc(C(=O)N3[C@H](C)COC[C@@H]3C)cc12)c1ccc(C(F)(F)F)cc1 (single isomer, unassigned) [Compound 102]
CN(Cc1cnn(C)c1)C(=O)c1cc2c(C(=O)NCC34CC5CC(CC(C5)C3)C4)cccn2n1 [Compound 49, 4-N-(adamantan-1-ylmethyl)-2-N-methyl-2-N-[(1-methyl-1H-pyrazol-4-yl)methyl]pyrazolo[1,5-a]pyridine-2,4-dicarboxamide]
